Data reported in patent publication US20260083864A1, “CONTRAST AGENTS FOR USE IN DIAGNOSTIC COMPUTED TOMOGRAPHY IMAGING” (Bayer Aktiengesellschaft, priority 2022, published 2026).

Experiments:
[1] = Water solubility in aqueous buffer; settings: aqueous buffer 10 mM Tris-HCl, pH 7.4, 20° C.
Experimental: The solid compounds were added stepwise to the buffer solution. More substance is added once all the suspended material is dissolved until an equilibrium between undissolved and dissolved substance is reached. The suspension was mixed using a shaker (Heidolph Reax 2000) and treated 5 min in an ultrasound bath (Bandelin, Sonorex Super RK255H).

[2] = Complex stability (transmetallation) against Zn2+ in phosphate buffer; settings: 72 hours, 2.5 mM Zn^2+, 26 mM phosphate buffer, 37° C., pH 7.4
Excerpt: If test compounds are instable under these conditions, transmetallation during this test would lead to the formation of the Zn^2+ complex of the test item, while Gd^3+ is released and precipitated as highly insoluble GdPO4.

[3] = Relaxivity measurements at 1.41 T in water; type: physicochemical; settings: 37° C., normalized to Gd
Summary of the method: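 T1 by inversion recovery and T2 by CPMG at 1.41 T (60 MHz), 37° C, relaxation delay ≥5×T1. Three Gd concentrations between 0.05 and 2 mM; relaxivities derived from measured relaxation rates in water.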

[4] = Relaxivity measurements at 1.41 T in human plasma; type: physicochemical; settings: 37° C., normalized to Gd
Summary of the method: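 T1 determined by inversion recovery (8 inversion-time steps) and T2 by CPMG sequence, both with relaxation delay ≥5×T1. Each relaxivity used three Gd concentrations between 0.05 and 2 mM. Relaxivities were derived from relaxation rates measured in water and plasma.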

OATP1B1 = biological target: T1, OATP1B1 (Homo sapiens, UniProt Q9Y6L6); experiment: Uptake into stable transfected OATP1B1 HEK 293 cells; type: cell-based; settings: for Uptake into OATP1B1-HEK 293 cells: 40 min incubation, relative to RC1 (Gd-EOB-DTPA); for Inhibition Rifampicine: uptake into OATP1B1-HEK 293 cells
T1 sequence (Q9Y6L6 1-691): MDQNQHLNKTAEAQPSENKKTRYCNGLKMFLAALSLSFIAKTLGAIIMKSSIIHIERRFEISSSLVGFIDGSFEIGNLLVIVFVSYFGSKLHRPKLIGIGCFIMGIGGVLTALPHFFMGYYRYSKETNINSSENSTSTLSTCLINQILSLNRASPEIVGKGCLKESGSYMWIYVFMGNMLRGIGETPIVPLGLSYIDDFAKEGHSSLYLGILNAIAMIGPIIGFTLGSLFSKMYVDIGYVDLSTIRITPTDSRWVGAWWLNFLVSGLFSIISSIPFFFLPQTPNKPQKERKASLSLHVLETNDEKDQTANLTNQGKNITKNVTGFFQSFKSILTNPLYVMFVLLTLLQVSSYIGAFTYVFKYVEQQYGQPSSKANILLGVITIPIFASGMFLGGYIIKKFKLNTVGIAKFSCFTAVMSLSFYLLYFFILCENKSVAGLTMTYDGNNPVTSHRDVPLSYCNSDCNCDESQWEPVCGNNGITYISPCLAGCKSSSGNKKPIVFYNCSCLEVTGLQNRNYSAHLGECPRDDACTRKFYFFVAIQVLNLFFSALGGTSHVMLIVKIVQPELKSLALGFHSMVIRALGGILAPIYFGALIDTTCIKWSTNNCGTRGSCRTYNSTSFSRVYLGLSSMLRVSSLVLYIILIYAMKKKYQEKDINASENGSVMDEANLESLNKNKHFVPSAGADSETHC
Summary of the method: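 Uptake measured in triplicate after a 40 min, unshaken exposure of OATP1B1-expressing HEK293 cells to 100 µM (final) compound in transport buffer. Cold PBS wash stopped uptake; Gd-EOB-DTPA served as reference standard within each plate.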

OATP1B3 = biological target: T2, OATP1B3 (Homo sapiens, UniProt Q9NPD5); experiment: Uptake into stable transfected OATP1B3 HEK 293 cells; type: cell-based; settings: for Uptake into OATP1B3-HEK 293 cells: 40 min incubation, relative to RC1 (Gd-EOB-DTPA); for Inhibition Rifampicine: uptake into OATP1B3-HEK 293 cells
T2 sequence (Q9NPD5 1-702): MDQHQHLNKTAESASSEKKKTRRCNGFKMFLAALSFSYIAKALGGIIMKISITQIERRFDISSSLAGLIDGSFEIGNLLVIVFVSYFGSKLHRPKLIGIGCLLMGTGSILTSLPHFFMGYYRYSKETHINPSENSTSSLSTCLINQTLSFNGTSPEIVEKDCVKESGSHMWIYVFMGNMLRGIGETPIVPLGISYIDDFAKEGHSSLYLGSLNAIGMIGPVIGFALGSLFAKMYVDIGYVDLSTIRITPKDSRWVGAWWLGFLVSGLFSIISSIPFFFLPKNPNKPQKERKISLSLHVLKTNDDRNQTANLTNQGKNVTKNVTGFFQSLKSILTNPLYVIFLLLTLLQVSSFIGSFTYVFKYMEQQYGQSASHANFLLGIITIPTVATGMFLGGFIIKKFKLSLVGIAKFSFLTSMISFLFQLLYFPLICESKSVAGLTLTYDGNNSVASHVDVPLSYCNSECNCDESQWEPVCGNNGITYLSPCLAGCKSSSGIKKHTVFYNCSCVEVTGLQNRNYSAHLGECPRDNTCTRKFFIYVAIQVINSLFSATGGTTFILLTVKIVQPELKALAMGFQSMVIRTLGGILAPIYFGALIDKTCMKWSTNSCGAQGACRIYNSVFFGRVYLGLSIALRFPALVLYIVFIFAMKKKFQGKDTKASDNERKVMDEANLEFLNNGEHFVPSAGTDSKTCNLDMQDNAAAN
Summary of the method: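 HEK 293 cells stably transfected with human OATP1B3 were incubated for 40 min with test items at 100 μM final in transport buffer, in triplicate, then washed with cold PBS. Gadoxetate (Gd-EOB-DTPA) served as the reference standard on the same plate.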

[5] = Partition coefficient (log P butanol/buffer); type: physicochemical; settings: 1-butanol / 50 mM Tris-HCl, pH 7.4, room temperature
[6] = system: freshly isolated rat hepatocytes; experiment: Uptake into freshly isolated rat hepatocytes; settings: for Uptake rat hepatocytes: 100 μmol Gd/L, 10 min, 37° C., relative to RC1 (Gd-EOB-DTPA); for Inhibition Rifampicine: rat hepatocyte uptake, test item and Rifampicine 1:1, each 100 μM

Compound | Solubility [1] | Transmetallation stability [2] | r1 water [3] | r1 human plasma [4] | Uptake into OATP1B1-HEK 293 cells (OATP1B1) | Inhibition Rifampicine (OATP1B1) | Uptake into OATP1B3-HEK 293 cells (OATP1B3) | Inhibition Rifampicine (OATP1B3) | Log P (partition coefficient butanol/buffer) [5] | Uptake rat hepatocytes [6] | Inhibition Rifampicine [6]
CCOCCOCCOc1ccc(C[C@H](C(=O)O)N2CCN(CC(=O)[O-])CCN(CC(=O)[O-])CCN(CC(=O)[O-])CC2)cc1.[Gd+3] [Example 4, gadolinium 2,2′,2″-{10-[(1R)-1-carboxy-2-{4-[2-(2-ethoxyethoxy)ethoxy]phenyl}ethyl]-1,4,7,10-tetraazacyclododecane-1,4,7-triyl}triacetate] | >75 mM | 100% | 4.2 L/mmol/s | 6.5 L/mmol/s | 126 % of RC1 | 40 % inhibition | 58 % of RC1 | 98 % inhibition | −1.61 | 72 % of RC1 | 98 % inhibition
CCOCCOCCOc1ccc(CC(C(=O)O)N2CCN(CC(=O)[O-])CCN(CC(=O)[O-])CCN(CC(=O)[O-])CC2)cn1.[Gd+3] (centres unmarked) [Example 16, gadolinium 2,2′,2″-{10-[1-carboxy-2-{6-[2-(2-ethoxyethoxy)ethoxy]pyridin-3-yl}ethyl]-1,4,7,10-tetraazacyclododecane-1,4,7-triyl}triacetate] | >416 mM | 101% | 4.4 L/mmol/s | 6.2 L/mmol/s | 66 % of RC1 | 35 % inhibition | 25 % of RC1 | 94 % inhibition | −1.81 | 16 % of RC1 | 92 % inhibition
CCOCCOCCOc1ccc(CCCC(C(=O)O)N2CCN(CC(=O)[O-])CCN(CC(=O)[O-])CCN(CC(=O)[O-])CC2)cc1.[Gd+3] (centres unmarked) [Example 25, gadolinium 2,2′,2″-{10-[1-carboxy-4-{4-[2-(2-ethoxyethoxy)ethoxy]phenyl}butyl]-1,4,7,10-tetraazacyclododecane-1,4,7-triyl}triacetate] | 306 mM | 103% | 4.6 L/mmol/s | 7.5 L/mmol/s | 30 % of RC1 | 75 % inhibition | 58 % of RC1 | 93 % inhibition | −1.00 | 82 % of RC1 | 96 % inhibition
CCOCCOCCOc1ccc(CCC[C@@H](C(=O)O)N2CCN(CC(=O)[O-])CCN(CC(=O)[O-])CCN(CC(=O)[O-])CC2)cc1.[Gd+3] [Example 26, gadolinium 2,2′,2″-{10-[(1S)-1-carboxy-4-{4-[2-(2-ethoxyethoxy)ethoxy]phenyl}butyl]-1,4,7,10-tetraazacyclododecane-1,4,7-triyl}triacetate] | >62 mM | 99% | 4.5 L/mmol/s | 7.5 L/mmol/s | 386 % of RC1 | 73 % inhibition | 64 % of RC1 | 93 % inhibition | −1.01 | 77 % of RC1 | 97 % inhibition
CCOc1ccc(CCCC(C(=O)O)N2CCN(CC(=O)[O-])CCN(CC(=O)[O-])CCN(CC(=O)[O-])CC2)cc1.[Gd+3] (centres unmarked) [Example 28, gadolinium 2,2′,2″-{10-[1-carboxy-4-(4-ethoxyphenyl)butyl]-1,4,7,10-tetraazacyclododecane-1,4,7-triyl}triacetate] | >194 mM | 101% | 4.4 L/mmol/s | 10.6 L/mmol/s | 294 % of RC1 | 94 % inhibition | 36 % of RC1 | 97 % inhibition | −0.71 | 72 % of RC1 | 98 % inhibition
CCCCOc1ccc(CCC[C@@H](C(=O)O)N2CCN(CC(=O)[O-])CCN(CC(=O)[O-])CCN(CC(=O)[O-])CC2)cc1.[Gd+3] [Example 31, gadolinium 2,2′,2″-{10-[(1S)-4-(4-butoxyphenyl)-1-carboxybutyl]-1,4,7,10-tetraazacyclododecane-1,4,7-triyl}triacetate] | >255 mM | 102% | 4.4 L/mmol/s | 15.8 L/mmol/s | 1919 % of RC1 | 98 % inhibition | 194 % of RC1 | 99 % inhibition | 0.20 | 87 % of RC1 | 94 % inhibition
CCCCOc1cccc(CCC[C@@H](C(=O)O)N2CCN([C@@H](CO)C(=O)[O-])CCN([C@@H](CO)C(=O)[O-])CCN([C@@H](CO)C(=O)[O-])CC2)c1.[Gd+3] [Example 34, gadolinium (2S,2′S,2″S)-2,2′,2″-{10-[(1S)-4-(3-butoxyphenyl)-1-carboxybutyl]-1,4,7,10-tetraazacyclododecane-1,4,7-triyl}tris(3-hydroxypropanoate)] | >236 mM | 101% | 4.9 L/mmol/s | 18.0 L/mmol/s | 947 % of RC1 | 96 % inhibition | 140 % of RC1 | 98 % inhibition | 0.12 | 98 % of RC1 | 90 % inhibition
